Reference: patent publication US6015809A (priority 1999, dated 2000)
≈ marks a conversion by molar mass, not a printed value.

Tests used:
Format in all cases: cell-based
[1] = test system: A2780S (ovarian) tumor cells; test: Antineoplastic activity in vitro, tumor cell growth (sulforhrodamine B); settings: 48 hours
Description: (§1) Antineoplastic activity for the compounds of this invention was established by evaluating the antineoplastic activity of a representative compound of this invention (Compound I) against six tumor cell lines in vitro. Briefly, tumor cells from six cell lines were placed in wells of a 96 well microtiter plate. The following tumor cell lines were used: A2780S (ovarian), A2780DDP (ovarian--resistant to cis-platin), A431 (vulva epidermoid origin), SW620 (colon), SKBR3 (breast), and MDA-MB-435 (breast). The tumors cells were grown in the presence of serial dilutions of the compound to be evaluated for 48 hours, and cell growth determined using a colorimetric procedure (sulforhrodamine B). The inhibition of growth was calculated compared to the number of cells at the time of test compound addition. Results are expressed as an IC50 (μg/ml). […] In particular, the compounds of this invention are useful against solid tumors, including sarcomas and carcinomas; and more particularly against astrocytomas, prostate cancer, breast cancer, colon cancer, small cell lung cancer, and ovarian cancer; and adult T-cell leukemia/lymphoma.

[2] = test system: MDA-MB-435 (breast) tumor cells; test: as above; settings: MDA-MB-435, 48 hours
Description: as §1

[3] = test system: A2780DDP (ovarian--resistant to cis-platin) tumor cells; test: as above; settings: 48 hours
Description: as §1

[4] = test system: SW620 (colon) tumor cells; test: as above; settings: SW620, 48 hours
Description: as §1

[5] = test system: SKBR3 (breast) tumor cells; test: as above; settings: SKBR3, 48 hours
Description: as §1

[6] = test system: A431 (vulva epidermoid origin) tumor cells; test: as above; settings: A431, 48 hours
Description: as §1

Saccharomyces cerevisiae = test: Antifungal activity, MIC microdilution; settings: strain ATCC 2601; RPMI 1640, 35° C., 24-48 hours
Procedure: (§2) Briefly the following procedure was used to evaluate such activity. A 96 U-bottom microtiter plate was filled (50 μl/well) with RPMI 1640. The compounds to be evaluated were placed in appropriate wells, and serial diluted in successive wells to provide 11 dilutions. The concentrations ranged from 64 through 0.06 μg/ml. An adjusted inoculum of fungi (50 μl) was added to each well and the plates were incubated at 35° C. for 24-48 hours.

Candida lusitaniae = test: Antifungal activity, MIC microdilution; settings: strain 94-3; RPMI 1640, 35° C., 24-48 hours
Procedure: as §2

Aspergillus flavus = test: Antifungal activity, MIC microdilution; settings: strain ATCC 12963; RPMI 1640, 35° C., 24-48 hours
Procedure: as §2

Aspergillus niger = test: Antifungal activity, MIC microdilution; settings: strain S-430; RPMI 1640, 35° C., 24-48 hours
Procedure: as §2

Candida zeylanoided = test: Antifungal activity, MIC microdilution; settings: strain 94-15; RPMI 1640, 35° C., 24-48 hours
Procedure: as §2

Candida albicans = test: Antifungal activity, MIC microdilution; settings: RPMI 1640, 35° C., 24-48 hours
Procedure: as §2

Candida pseudotropicalis = test: Antifungal activity, MIC microdilution; settings: strain ATCC 28838; RPMI 1640, 35° C., 24-48 hours
Procedure: as §2

Candida rugosa = test: Antifungal activity, MIC microdilution; settings: strain 94-10; RPMI 1640, 35° C., 24-48 hours
Procedure: as §2

Cryptococcus neoformans = test: Antifungal activity, MIC microdilution; settings: strain ATCC 90112; RPMI 1640, 35° C., 24-48 hours
Procedure: as §2, with “Antifungal activity for the compounds of this invention was established by evaluating a representative compound of this invention (Compound I) against several strains of fungi. Briefly” for “Briefly”

Candida tropicalis = test: Antifungal activity, MIC microdilution; settings: RPMI 1640, 35° C., 24-48 hours
Procedure: as §2, with “Antifungal activity for the compounds of this invention was established by evaluating a representative compound of this invention (Compound I) against several strains of fungi. Briefly” for “Briefly”

[7] = test system: Filobasidiella neoformans; test: Antifungal activity, MIC microdilution; settings: strain ATCC 7472; RPMI 1640, 35° C., 24-48 hours
Procedure: as §2, with “Antifungal activity for the compounds of this invention was established by evaluating a representative compound of this invention (Compound I) against several strains of fungi. Briefly” for “Briefly”

Candida glabrata = test: Antifungal activity, MIC microdilution; settings: strain ATCC 90030; RPMI 1640, 35° C., 24-48 hours
Procedure: as §2, with “Antifungal activity for the compounds of this invention was established by evaluating a representative compound of this invention (Compound I) against several strains of fungi. Briefly” for “Briefly”

Candida parapsilosis = test: Antifungal activity, MIC microdilution; settings: RPMI 1640, 35° C., 24-48 hours
Procedure: as §2, with “Antifungal activity for the compounds of this invention was established by evaluating a representative compound of this invention (Compound I) against several strains of fungi. Briefly” for “Briefly”

Candida krussii = test: Antifungal activity, MIC microdilution; settings: strain 94-2; RPMI 1640, 35° C., 24-48 hours
Procedure: as §2, with “Antifungal activity for the compounds of this invention was established by evaluating a representative compound of this invention (Compound I) against several strains of fungi. Briefly” for “Briefly”

Aspergillus fumigatus = test: Antifungal activity, MIC microdilution; settings: strain ATCC 26933; RPMI 1640, 35° C., 24-48 hours
Procedure: as §2, with “Antifungal activity for the compounds of this invention was established by evaluating a representative compound of this invention (Compound I) against several strains of fungi. Briefly” for “Briefly”

## CO[C@H]1C[C@@H]2CC[C@@H](C)[C@@](O)(O2)[C@]2(O)C(=O)N3[C@@H](CCC[C@@H]32)C(=O)O[C@H]([C@H](C)C[C@@H]2CC[C@@H](O)[C@H](OC)C2)CC(=O)[C@H](C)/C=C(\C)[C@@H](O)[C@@H](OC)C(=O)[C@H](C)C[C@H](C)/C=C/C=C/C=C/1C [Compound I, (1S,2R,3R,6S,8S,9E,11E,13E,15S,17R,19R,20R,21E,23R,26S,29S,33R)-1,2,30-Trihydroxy-26-[(1R)-2-[(1S,3R,4R)4-hydroxy-3-methoxycyclohexyl]-1-methylethyl]-8,19-dimethoxy-3,9,15,17,21,23-hexamethyl-27,36-dioxa-35-azatetracyclo[27.4.2.1.[2,6].0[33,35]]hexatriaconta-9,11,13,21-tetraene-18,24,28,34-tetrone]
[1]
  IC50 (inhibition of growth): 8.756 µg/mL
[2]
  IC50 (inhibition of growth): 27.28 µg/mL
[3]
  IC50 (inhibition of growth): 6.51 µg/mL
[4]
  IC50 (inhibition of growth): 24.84 µg/mL
[5]
  IC50 (inhibition of growth): 7.029 µg/mL
[6]
  IC50 (inhibition of growth): 20.46 µg/mL
Saccharomyces cerevisiae
  MIC: 8 µg/mL (≈ 8.75 µM)
Candida lusitaniae
  MIC: 4 µg/mL (≈ 4.38 µM)
Aspergillus flavus
  MIC: ≥ 64 µg/mL
Aspergillus niger
  MIC: ≥ 64 µg/mL
Candida zeylanoided
  MIC: 8 µg/mL (≈ 8.75 µM)
Candida albicans; strain 94-1
  MIC: 16 µg/mL (≈ 17.5 µM)
Candida albicans; strain 1063
  MIC: 16 µg/mL (≈ 17.5 µM)
Candida albicans; strain 1117
  MIC: 32 µg/mL (≈ 35 µM)
Candida albicans; strain ATCC 90028
  MIC: 16 µg/mL (≈ 17.5 µM)
Candida albicans; strain C-83
  MIC: ≥ 64 µg/mL
Candida pseudotropicalis
  MIC: 4 µg/mL (≈ 4.38 µM)
Candida rugosa
  MIC: 16 µg/mL (≈ 17.5 µM)
Cryptococcus neoformans
  MIC: 8 µg/mL (≈ 8.75 µM)
Candida tropicalis; strain 94-13
  MIC: 16 µg/mL (≈ 17.5 µM)
Candida tropicalis; strain 94-14
  MIC: 8 µg/mL (≈ 8.75 µM)
[7]
  MIC: ≥ 64 µg/mL
Candida glabrata
  MIC: 8 µg/mL (≈ 8.75 µM)
Candida parapsilosis; strain 94-8
  MIC: 8 µg/mL (≈ 8.75 µM)
Candida parapsilosis; strain 94-9
  MIC: 8 µg/mL (≈ 8.75 µM)
Candida parapsilosis; strain ATCC 90018
  MIC: 8 µg/mL (≈ 8.75 µM)
Candida krussii
  MIC: ≥ 64 µg/mL
Aspergillus fumigatus
  MIC: ≥ 64 µg/mL
